Measured values reported in patent US6262073A, “Pharmaceutical methods of use of 5-substituted and 5,5 disubstituted-3,4-dihydroxy-2(5H)-furanones” (Oxis International Inc., priority 2000, dated 2001).

Key:
[1] = molecular target: T1, 5-Lipoxygenase (crude enzyme preparation from rat basophilic leukemia cells, RBL-1) (Rattus norvegicus, UniProt P12527); assay: 5-Lipoxygenase screen (5-LO), 5-HETE by RIA; assay type: biochemical; settings: for inhibition at 30 µM: read-out: 5-LO percent inhibition; for inhibition at 1 µM: read-out: Percent inhibition of 5-LO
T1 construct: crude enzyme preparation from rat basophilic leukemia cells (RBL-1); endogenous in cells; host or cells: rat basophilic leukemia cells (RBL-1)
T1 sequence (P12527 1-673): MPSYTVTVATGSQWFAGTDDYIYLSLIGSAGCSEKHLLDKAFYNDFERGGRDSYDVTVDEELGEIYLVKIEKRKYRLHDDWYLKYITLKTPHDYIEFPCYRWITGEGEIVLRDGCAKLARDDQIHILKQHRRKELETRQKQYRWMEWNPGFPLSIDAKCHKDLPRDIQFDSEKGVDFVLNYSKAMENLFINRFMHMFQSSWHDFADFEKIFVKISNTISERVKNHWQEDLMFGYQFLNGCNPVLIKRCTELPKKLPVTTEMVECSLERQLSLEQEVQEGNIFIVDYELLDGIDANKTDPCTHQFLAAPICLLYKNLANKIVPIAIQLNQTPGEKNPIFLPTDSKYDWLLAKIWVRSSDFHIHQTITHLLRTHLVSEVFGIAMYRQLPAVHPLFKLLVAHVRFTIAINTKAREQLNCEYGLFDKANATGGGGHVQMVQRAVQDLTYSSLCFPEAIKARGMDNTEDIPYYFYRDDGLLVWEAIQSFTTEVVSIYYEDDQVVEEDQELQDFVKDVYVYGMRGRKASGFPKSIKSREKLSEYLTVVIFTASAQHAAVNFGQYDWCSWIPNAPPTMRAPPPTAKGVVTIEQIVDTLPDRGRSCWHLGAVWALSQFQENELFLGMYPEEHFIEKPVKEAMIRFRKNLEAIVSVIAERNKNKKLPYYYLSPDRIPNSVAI
Method: (§1) The compounds of the invention were screened for their anti-inflammatory activity using a series of in vitro tests the details of which are given below. The activity of various compounds against 5-lipoxygenase, cycloxygenase-1, cycloxygenase-2 and lipid peroxidase was evaluated. Results of the screening procedures are included in TABLE I, and the activity against 5-lipoxygenase at a test concentration of 1 μM in Table II.
5-Lipoxygenase catalyzes the oxidative metabolism of arachidonic acid to […] (5-HETE), the initial reaction leading to the formation of the leukotrienes. Briefly, the testing procedure utilizes a crude enzyme preparation from rat basophilic leukemia cells (RBL-1) according to the methods of T. Shimuzu et al. Pro. […] Test compounds are pre-incubated with the enzyme preparation for 5 minutes at room temperature and the reaction is initiated by the addition of arachidonic acid. Following an 8 minute incubation at room temperature, the reaction is terminated by the addition of citric acid and concentrations of 5-HETE are determined by RIA. Compounds are screened at 30 μM.

[2] = test system: Nuclear Factor-kappa B (NF-κB); assay: NF-κB lacZ (κB-Z) reporter assay in transfected Jurkat cells stimulated with A23187 and PMA; assay type: cell-based, human; settings: for inhibition at 10 µM: Homo sapiens, read-out: NF-κB percent inhibition
Method: The human T lymphoid cell line Jurkat was transfected with a response element lacZ reporter in which transcription of the β-galactosidase gene is directed by the binding site for the NF-κB transcription factor. […] At the end of the incubation, the cells are spun down and resuspended in the buffer and FDG (fluorescein di-β-D-galactopyranoside) solution. The covered plates are further incubated in the dark for 16 hours at 25° C. […] Compounds were screened at 10 μM.

[3] = molecular target: T2, Cyclooxygenase-2 (prostaglandin H synthetase-2) from sheep placenta (Ovis aries, UniProt P79208); assay: Cyclooxygenase-2 screen (COX-2); assay type: biochemical; settings: read-out: COX-2 percent inhibition
T2 construct: cyclooxygenase-2 from sheep placenta; from tissue; host or cells: sheep placenta
T2 sequence (P79208 17-603): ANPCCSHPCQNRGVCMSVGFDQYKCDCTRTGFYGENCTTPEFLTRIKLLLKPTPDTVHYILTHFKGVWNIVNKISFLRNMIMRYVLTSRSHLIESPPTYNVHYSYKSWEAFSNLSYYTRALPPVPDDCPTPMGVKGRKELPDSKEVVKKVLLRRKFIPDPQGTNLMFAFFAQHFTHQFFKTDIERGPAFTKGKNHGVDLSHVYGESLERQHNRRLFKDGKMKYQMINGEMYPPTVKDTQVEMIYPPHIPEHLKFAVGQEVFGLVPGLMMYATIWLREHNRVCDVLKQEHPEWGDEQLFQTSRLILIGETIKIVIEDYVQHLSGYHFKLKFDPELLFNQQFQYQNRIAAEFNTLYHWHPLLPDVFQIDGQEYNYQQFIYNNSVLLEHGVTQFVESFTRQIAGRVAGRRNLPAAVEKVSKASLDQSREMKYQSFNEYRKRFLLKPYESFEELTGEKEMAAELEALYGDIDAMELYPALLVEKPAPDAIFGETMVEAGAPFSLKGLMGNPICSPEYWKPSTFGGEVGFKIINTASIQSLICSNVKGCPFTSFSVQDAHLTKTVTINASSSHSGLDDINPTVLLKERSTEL
Method: as §1
Cyclooxygenase-2, also known as prostaglandin H synthetase-2, catalyzes the rate- limiting step in the synthesis of inflammatory prostaglandins. In this reaction cyclooxygenase-2 catalyzes the oxygenation of unesterified precursors to form cyclic endoperoxide derivatives, including prostaglandin H. Briefly, cyclooxygenase-2 from sheep placenta, 14 μg/assay tube, is incubated with arachidonic acid (500 μM) for 1.5 minutes at 27° C. in the absence or presence of test compounds according to the methods of A. T. Evans, et al., Biochem Pharm. […] Res. Comm. […] Compounds are screened at 300 μM.

[4] = molecular target: T3, Cyclooxygenase-1 (cyclooxygenase from ram seminal vesicles) (Ovis aries, UniProt P05979); assay: Cyclooxygenase-1 screen (COX-1); assay type: biochemical; settings: 300 μM
T3 construct: cyclooxygenase from ram seminal vesicles; from tissue; host or cells: ram seminal vesicles
T3 sequence (P05979 25-600): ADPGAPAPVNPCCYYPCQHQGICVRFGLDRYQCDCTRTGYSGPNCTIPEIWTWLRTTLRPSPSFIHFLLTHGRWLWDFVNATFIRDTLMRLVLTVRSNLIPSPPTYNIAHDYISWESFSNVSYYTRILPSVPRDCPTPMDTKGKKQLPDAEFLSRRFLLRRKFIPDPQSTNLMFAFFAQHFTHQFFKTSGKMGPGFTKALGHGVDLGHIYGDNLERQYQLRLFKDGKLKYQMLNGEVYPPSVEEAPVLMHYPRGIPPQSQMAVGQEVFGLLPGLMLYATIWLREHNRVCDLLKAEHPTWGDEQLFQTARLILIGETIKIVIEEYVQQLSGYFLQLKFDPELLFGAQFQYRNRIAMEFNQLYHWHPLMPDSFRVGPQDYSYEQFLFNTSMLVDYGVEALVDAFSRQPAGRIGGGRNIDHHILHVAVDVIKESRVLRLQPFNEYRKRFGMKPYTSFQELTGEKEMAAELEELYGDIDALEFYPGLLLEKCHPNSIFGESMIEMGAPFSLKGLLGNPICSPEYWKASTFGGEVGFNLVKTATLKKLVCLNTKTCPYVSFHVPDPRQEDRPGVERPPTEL
Method: as §1
Cyclooxygenase-1 is involved in the formation of prostaglandins and thromboxane via the oxidative metabolism of arachidonic acid. Briefly, cyclooxygenase from ram seminal vesicles is incubated with arachidonic acid (100 μm) for 2 minutes at 37° C. in the presence or absence of test compounds according to the methods of A. T. Evans et al., Biochem. Pharm. 36:2035-2037(1987) and R. Boopathy et al., Biochem J. 239:371-377 (1968). The assay is terminated by the addition of trichioroacetic acid and cyclooxygenase activity is determined by reading the absorbance at 530 nm. […]

[5] = test system: Lipid peroxidation (rat liver microsomes); assay: Lipid peroxidation screen (LPO), CCl4-induced, liver microsomes; assay type: biochemical; settings: 300 μM
Method: as §1
Lipid peroxidation is a consequence of various stimuli, including reactive free radicals. Polyunsaturated fatty acids associated with plasma membranes are degraded due to enzymatic induction by reactive agents such as CCl4, leading to cellular damage. Briefly, microsomes are prepared from rat livers and the protein concentration is determined according to the method of D. Mansuy et al., Biochem. Biophys. Res. Comm. 135:1015-1021(1986). A reaction mixture consisting of 2 mg of the microsomal preparation, an NADPH generating system, 20 mM CCl4 and test compound are incubated for 12 minutes at 37° C. The reaction is terminated by the addition of a mixture of thiobarbituric acid and trichloroacetic acid. The absorbance is read at 535 nm and is proportional to the concentration of malondialdehyde. Compounds are screened at 300 μM.

[6] = 10 μM, κB-Z Jurkat cells, A23187 and PMA (Table III)

SMILES	inhibition at 30 µM [1] [%]	inhibition at 1 µM ([1]; test conc. 1 μM (Table II)) [%]	inhibition at 10 µM [2, 6] [%]	inhibition at 300 µM [3] [%]	COX-1 percent inhibition [4] [%]	LPO percent inhibition [5] [%]	5-LO percent inhibition ([1]; Table I cell printed "@1" instead of the 30 μM of the head) [%]	IC50 ([1]; Table II) [µM]	Percent inhibition of 5-LO ([1]; test conc. 1 μM (Table II)) [%]	NF-κB percent inhibition [2, 6] [%]	IC50 ([2]; Table III) [µM]
CC(C)Cc1ccc([C@]2(C)OC(=O)C(O)=C2O)cc1 [Example 14, (S)-(+)-3,4-Dihydroxy-5-methyl-5-[4-(2-methylpropyl)phenyl]-2(5H)-furanone]	96	50	60	18	12	66	–	–	–	–	–
O=C1OC(CCC#Cc2cc(Cc3ccc(F)cc3)cs2)C(O)=C1O (centres unmarked) [Example 36, 3,4-Dihydroxy-5-[2-(4-(4-fluorophenylmethyl)thiophene)-(3-butynyl)]-2(5H)-furanone]	–	–	–	–	–	–	85	0.16	91	61	6
O=C1OC(c2ccccc2)(c2ccc(-c3ccccc3)cc2)C(O)=C1O (centres unmarked) [Example 7, 5-[(1,1'-Biphenyl)-4-yl]-3,4-dihydroxy-5-phenyl-2(5H)-furanone]	102	61	21	34	52	73	–	–	–	–	–
O=C1OC(c2ccccc2)(c2ccccc2)C(O)=C1O [Example 8, 3,4-Dihydroxy-5,5-diphenyl-2(5H)-furanone]	94	15	33	17	15	70	–	–	–	–	–
C[C@]1(c2ccc(-c3ccccc3)cc2)OC(=O)C(O)=C1O [Example 12, (R)-(-)-5-[(1,1'-Biphenyl)-4-yl]-3,4-dihydroxy-5-methyl-2(5H)-furanone]	101	60	56	12	10	62	–	–	–	–	–
O=C1OC(CCN2C(=O)c3cccc4cccc(c34)C2=O)C(O)=C1O (centres unmarked) [Example 19, 3,4-Dihydroxy-5-[2-(1,8-naphthalimide)-N-ethyl]-2(5H)-furanone]	86	–	–	2	9	68	–	–	–	–	–
O=C1OC(CCOc2ccc3oc(-c4ccccc4)cc(=O)c3c2)C(O)=C1O (centres unmarked) [Example 16, 3,4-Dihydroxy-5-[2-(flavone-6-oxy)ethyl]-2(5H)-furanone]	100	54	–	2	17	76	–	–	–	–	–
O=C1OC(CCOc2ccccc2Cc2ccccc2)C(O)=C1O (centres unmarked) [Example 21, 3,4-Dihydroxy-5-[2-(diphenylmethane-2-oxy)ethyl]-2(5H)-furanone]	101	62	–	10	12	68	–	–	–	–	–
CCC/C=C\Cc1ccccc1C#CCCC1OC(=O)C(O)=C1O (centres unmarked) [Example 29]	81	56	–	26	55	72	–	–	–	–	–
CC(C)Cc1ccc(C2(C)OC(=O)C(O)=C2O)cc1 (centres unmarked) [Example 3, 3,4-Dihydroxy-5-methyl-5-[4-(2-methylpropyl)phenyl]-2(5H)-furanone]	99	–	–	-4	2	78	–	–	–	–	–
O=C1OC(CCOc2ccc(Oc3ccccc3)cc2)C(O)=C1O (centres unmarked) [Example 15, 3,4-Dihydroxy-5-[2-(4-phenoxy)phenoxyethyl]-2(5H)-furanone]	100	52	–	-4	9	-5	–	–	–	–	–
O=C1OC(CCOc2ccc3oc4ccccc4c3c2)C(O)=C1O (centres unmarked) [Example 17, 5-[2-(Dibenzofuran-2-oxy)ethyl]-3,4-dihydroxy-2(5H)-furanone]	99	60	–	21	17	74	–	–	–	–	–
